Like-named read-outs stand apart in the source and are kept apart here.
System: C. elegans
Assay: microbe, parasite or virus in culture
Details: Caenorhabditis elegans
[1] = 0 h, read-out: Percentage of motility inhibition 0 h, Table S2, C. elegans SS assay, 110 μM, 0 h, averages of 4 data points
[2] = 24 h, read-out: Percentage of motility inhibition 24 h, Table S2, C. elegans SS assay, 110 μM, 24 h, averages of 4 data points
[3] = 0 h, read-out: Percentage of motility inhibition 0 h
[4] = 24 h, read-out: Percentage of motility inhibition 24 h

Row | Structure (SMILES) | inhibition at 110 µM [1] [%] | inhibition at 110 µM [2] [%] | inhibition at 110 µM [3] [%] | inhibition at 110 µM [4] [%]
1 | [H]/N=C(\N/C(=N/[H])NCCCCCCNC(=N)NC(=N)Nc1ccc(Cl)cc1)Nc1ccc(Cl)cc1 [Chlorhexidine] | 38 | 63 |  | 
2 | COC(=O)C1=CC[C@@]23CC[C@@H]([C@@](C)(/C=C/C=C(\C)C(=O)O)OC2=O)[C@@]3(O)CC1 [Pseudolaric Acid C] | 31 | 42 |  | 
3 | COc1cc(O)c2c(=O)cc(-c3ccc(OC)c(-c4c(O)cc(O)c5c(=O)cc(-c6ccc(O)cc6)oc45)c3)oc2c1 [Ginkgetin] | 13 | 16 |  | 
4 | CC(C)(C)NC(=O)[C@@H]1C[C@@H]2CCCC[C@@H]2CN1C[C@@H](O)[C@H](Cc1ccccc1)NC(=O)[C@H](CC(N)=O)NC(=O)c1ccc2ccccc2n1 [Saquinavir] | 37 | 0 |  | 
5 | C[N+](C)(C)CCOP(=O)(O)OP(=O)([O-])OC[C@H]1O[C@@H](n2ccc(N)nc2=O)[C@H](O)[C@@H]1O [Citicoline] | 0 | 0 |  | 
6 | c1ccc2[nH]ccc2c1 [Indole] |  |  | 13 | 9
7 | COc1cc(C(=O)OCCCCNC(=N)N)cc(OC)c1O [Leonurine] | 0 | 0 |  | 
8 | CC(C)=CCC[C@](C)(O)[C@H]1CC[C@]2(C)[C@@H]1[C@H](O)C[C@@H]1[C@@]3(C)CC[C@H](O[C@@H]4O[C@H](CO)[C@@H](O)[C@H](O)[C@H]4O)C(C)(C)[C@@H]3CC[C@]12C [Ginsenoside Rh2] | 34 | 38 |  | 
9 | O=c1cc(-c2ccc(O)cc2)oc2cc(O)c(O)c(O)c12 [Scutellarein] |  |  | 49 | 3
10 | CC1(C)[C@H](C(=O)O)N2C(=O)C[C@H]2S1(=O)=O [Sulbactam] |  |  | 1 | 9
11 | CN1CCc2cc3c(cc2C1O)OCO3 (stereo not drawn) [Hydrastinine] | 1 | 4 |  | 
12 | CC(=O)O[C@]1(C(C)=O)CC[C@H]2[C@@H]3C[C@H](C)C4=CC(=O)CC[C@]4(C)[C@H]3CC[C@@]21C [Medroxyprogesterone acetate] | 11 | 6 |  | 
13 | CC(C)C[C@H](N)C(=O)O [L-Leucine] | 4 | 11 |  | 
14 | C=C1CCC[C@]2(C)C[C@]3(O)OC(=O)C(C)=C3C[C@@H]12 [Atractylenolide III] | 3 | 6 |  | 
15 | Cc1cc(NS(=O)(=O)c2ccc(N)cc2)no1 [Sulfamethoxazole] | 30 | 11 |  | 
16 | C[C@@H]1[C@H](O)[C@@H](C)/C=C/C=C/C=C/C=C/C=C/C=C/C=C/[C@H](O[C@@H]2O[C@H](C)[C@@H](O)[C@H](N)[C@@H]2O)C[C@@H]2O[C@](O)(C[C@@H](O)C[C@@H](O)[C@H](O)CC[C@@H](O)C[C@@H](O)CC(=O)O[C@H]1C)C[C@H](O)[C@H]2C(=O)O [Amphotericin B] | 2 | 29 |  | 
17 | CC(=O)NS(=O)(=O)c1ccc(NC(=O)c2ccccc2C(=O)O)cc1 [Phthalylsulfacetamide] | 32 | 2 |  | 
18 | CC1(C)C=Cc2c(ccc3c2OC[C@@H](c2ccc(O)cc2O)C3)O1 [Glabridin] | 26 | 6 |  | 
19 | COc1cc(O)c2c(=O)c3c(O[C@@H]4O[C@H](CO)[C@@H](O)[C@H](O)[C@H]4O)ccc(O)c3oc2c1 [Swertianolin] | 11 | 0 |  | 
20 | C=C1CC[C@@H]2[C@](C)(CO)[C@H](O)CC[C@@]2(C)[C@@H]1CCC1=CCOC1=O [14-Deoxyandrographolide] | 1 | 28 |  | 
21 | C=C[C@](C)(O)CC[C@@H]1[C@@]2(C)CCCC(C)(C)[C@@H]2CC[C@@]1(C)O [Sclareol] | 28 | 10 |  | 
22 | COc1cccc(O)c1-c1cc(=O)c2c(O)c(OC)c(OC)c(OC)c2o1 [Skullcapflavone II] |  |  | 4 | 6
23 | C[C@@H]1O[C@@H](O[C@H]2C(=O)c3c(O)cc(O)cc3O[C@@H]2c2ccc(O)c(O)c2)[C@H](O)[C@H](O)[C@H]1O [Astilbin] |  |  | 31 | 0
24 | Oc1c(Cl)cc(Cl)cc1Sc1cc(Cl)cc(Cl)c1O [Bithionol] | 40 | 40 |  | 
25 | Oc1cc(Cl)ccc1Oc1ccc(Cl)cc1Cl [Triclosan] | 45 | 60 |  | 
26 | CC1(C)C(C=C(Cl)Cl)C1C(=O)OCc1cccc(Oc2ccccc2)c1 (stereo not drawn) [Permethrin] | 9 | 7 |  | 

Row | Structure (SMILES) | inhibition at 110 µM [1] [%] | inhibition at 110 µM [2] [%] | inhibition at 110 µM [3] [%] | inhibition at 110 µM [4] [%]
27 | CN1[C@@H]2CC[C@H]1C[C@@H](OC(=O)[C@H](CO)c1ccccc1)C2 [L‐Hyoscyamine] |  |  | 16 | 12
28 | COc1ccc2c(c1OC)CN(C)c1c-2ccc2cc3c(cc12)OCO3 [Dihydrochelerythrine] | 0 | 7 |  | 
29 | COc1c(O)cc2oc(-c3ccccc3)cc(=O)c2c1O [Oroxylin A] | 39 | 12 |  | 
30 | CC1(C)CC[C@]2(C(=O)O[C@@H]3O[C@H](CO)[C@@H](O)[C@H](O)[C@H]3O)CC[C@]3(C)C(=CC[C@@H]4[C@@]5(C)CC[C@H](O[C@@H]6O[C@H](C(=O)O)[C@@H](O)[C@H](O)[C@H]6O)C(C)(C)[C@@H]5CC[C@]43C)[C@@H]2C1 [Chikusetsusaponin Iva] | 5 | 14 |  | 
31 | OB1OCc2cc(F)ccc21 [AN‐2690] | 0 | 12 |  | 
32 | C[C@@H]1CCC=C2C(=O)C[C@H]3OOC(C)(C)[C@H]3[C@]21C [Nardosinone] | 0 | 13 |  | 
33 | CC(C)=CCC[C@](C)(O[C@@H]1O[C@H](CO[C@@H]2O[C@H](CO)[C@@H](O)[C@H](O)[C@H]2O)[C@@H](O)[C@H](O)[C@H]1O)[C@H]1CC[C@]2(C)[C@@H]1[C@H](O)C[C@@H]1[C@@]3(C)CC[C@H](O[C@@H]4O[C@H](CO)[C@@H](O)[C@H](O)[C@H]4O)C(C)(C)[C@@H]3CC[C@]12C [Gypenoside XVII] | 4 | 4 |  | 
34 | O=P(O)(O)OC(Cn1cncn1)(Cn1cncn1)c1ccc(F)cc1F [Fosfluconazole] | 17 | 0 |  | 
35 | N[C@@H](CC(=O)O)C(=O)O [L-Aspartic acid] | 20 | 30 |  | 
36 | CC1(C)[C@H](O)CC[C@@]2(C)[C@@H]3CC[C@](C)([C@@H](O)CO[C@@H]4O[C@H](CO)[C@@H](O)[C@H](O)[C@H]4O)C=C3CC[C@H]12 [Darutoside] | 2 | 9 |  | 
37 | O=C1C=CC[C@@H]2[C@H]3CCC[N+]4([O-])CCC[C@@H](CN12)[C@@H]34 (stereo partly drawn) [Oxysophocarpine] | 34 | 0 |  | 
38 | CC(C)=CCC[C@](C)(O[C@@H]1O[C@H](CO[C@@H]2OC[C@H](O)[C@H](O)[C@H]2O)[C@@H](O)[C@H](O)[C@H]1O)[C@H]1CC[C@]2(C)[C@@H]1[C@H](O)C[C@@H]1[C@@]3(C)CC[C@H](O)C(C)(C)[C@@H]3[C@@H](O)C[C@]12C [Ginsenoside F3] | 2 | 34 |  | 
39 | O=c1cc[nH]c(=O)[nH]1 [Uracil] | 0 | 0 |  | 
40 | COC(=O)C1=CO[C@@H](O[C@@H]2O[C@H](CO)[C@@H](O)[C@H](O)[C@H]2O)[C@H]2[C@@H]1C=C[C@@]2(O)CO [Gardenoside] |  |  | 0 | 8
41 | C=C1CCC[C@]2(C)C[C@@H]3OC(=O)C(C)=C3C[C@@H]12 [Atractylenolide II] | 10 | 2 |  | 
42 | COc1ccc(-c2oc3c(CC=C(C)C)c(O[C@@H]4O[C@H](CO)[C@@H](O)[C@H](O)[C@H]4O)cc(O)c3c(=O)c2O[C@@H]2O[C@@H](C)[C@H](O)[C@@H](O)[C@H]2O)cc1 [Icariin] |  |  | 30 | 12
43 | COc1ccc([C@@H]2CC(=O)c3c(O)cc(O[C@@H]4O[C@H](CO)[C@@H](O)[C@H](O)[C@H]4O[C@@H]4O[C@@H](C)[C@H](O)[C@@H](O)[C@H]4O)cc3O2)cc1 [Poncirin] | 13 | 3 |  | 
44 | CC(C)C12CCC(C)(CC1)O2 [1,4-Cineole] | 21 | 35 |  | 
45 | CC(C)(O/N=C(\C(=O)N[C@@H]1C(=O)N2C(C(=O)[O-])=C(C[n+]3ccccc3)CS[C@H]12)c1csc(N)n1)C(=O)O [Ceftazidime] | 37 | 28 |  | 
46 | O=c1cc(-c2ccccc2)oc2cccc(O)c12 [5‐Hydroxyflavone] | 12 | 21 |  | 
47 | COc1ccc(C(=O)O[C@H]2CC[C@@]3(C)[C@@H]4CC[C@H]5[C@]6(O)C[C@H](O)[C@@]7(O)[C@@H](CN8C[C@@H](C)CC[C@H]8[C@@]7(C)O)[C@]6(O)C[C@@]53O[C@]24O)cc1OC [Veratridine] | 4 | 0 |  | 
48 | C=C(C)[C@H]1CN[C@H](C(=O)O)[C@H]1CC(=O)O [Kainic acid] | 0 | 0 |  | 
49 | C[C@H]1C(=O)O[C@@H]2CC[N+]3([O-])CC=C(COC(=O)[C@](C)(O)[C@]1(C)O)[C@H]23 (stereo partly drawn) [Monocrotaline N‐Oxide] | 0 | 0 |  | 
50 | CC[C@H]1OC(=O)C[C@@H](O)[C@H](C)[C@@H](O[C@@H]2O[C@H](C)[C@@H](O[C@H]3C[C@@](C)(O)[C@@H](O)[C@H](C)O3)[C@H](N(C)C)[C@H]2O)[C@@H](CC=O)C[C@@H](C)C(=O)/C=C/C(C)=C/[C@@H]1CO[C@@H]1O[C@H](C)[C@@H](O)[C@@H](OC)[C@H]1OC [Tylosin] | 22 | 0 |  | 
51 | O=C(Nc1ccccc1F)N[C@H]1N=C(c2ccccc2)c2ccccc2NC1=O [RSV604] | 37 | 15 |  | 

Source: article PMC11855827, “High-Throughput Screening of Five Compound Libraries for Anthelmintic Activity and Toxicity Leads to the Discovery of Two Flavonoid Compounds” (International Journal of Molecular Sciences, 2025)
